# Marks after values point to notes of the source that are not given here.
# Legend:
# [1] = test system: beta adrenergic blockade, isolated right auricle preparation of rabbit; experiment: Beta blocking potency (pA2 against isoprenaline) in isolated rabbit right auricle; settings: isoprenaline chronotropic response, Schild's plot, listed as 4:1
# Experimental: Estimation of the beta blockade of various ratios of d- and l- isomers of sotalol was carried out in the isolated right auricle preparation of rabbit. The spontaneously beating right atrium was dissected and mounted in a 20 ml tissue bath. The resting tension on the atria was set at 1 g. The contractions were recorded using a force displacement transducer. The spontaneous contractions of the right atria were recorded isometrically and the heart rate was obtained as a derived parameter using a ratemeter that gave the output in beats per minute. Six different ratios of d and l isomers were investigated (1:1, 2:1, 3:1, 4:1, 5:1 and 1:0). Dose-response-curves (DRC) for isoprenaline in the isolated atria, using the chronotropic response were determined by cumulative addition of isoprenaline. The pA2 values of each of the ratios were estimated using the classical Schild's plot (Schild, 1957) and the values are shown in Table 1.
# [2] = test system: ouabain induced arrhythmia (VT, VF, mortality); experiment: Ouabain induced arrhythmia model in guinea pig; type: in vivo; settings: for actual incidence of mortality (value in parenthesis): 60 min; for actual incidence of mortality (value in parenthesis) / actual incidence of VF (value in parenthesis) / actual incidence of VT (value in parenthesis): number of animals of the group; for % INCIDENCE OF MORTALITY: mortality at 60 min; for deaths due to conduction block (60 min), actual incidence (value in parenthesis) / deaths due to tachyarrhythmia (60 min), actual incidence (value in parenthesis): number of animals; for % INCIDENCE OF VF / % INCIDENCE OF VT: ouabain 240 μg/kg in three doses, observed one hour; for DEATHS DUE TO CONDUCTION BLOCK (60 MIN) Percentage / DEATHS DUE TO TACHYARRHYTHMIA (60 MIN) Percentage: percentage deaths out of total mortality
# Source text: Method: Guinea pigs (Dunken Hartley) of either sex weighing between 400 and 500 g were used for the study. The animals were anesthetized with urethane (1.25 g/kg. i.p.). The left common carotid artery and left jugular vein were cannulated for arterial blood pressure monitoring and intravenous access respectively. Lead II electrocardiogram, arterial blood pressure, mean arterial blood pressure (MABP), heart rate were monitored throughout the experiment.
# After initial surgical preparations and allowing 30 minutes for the animal to stabilise the first dose of ouabain (90 μg/kg) was administered over a period of one minute. After the interval of thirty minutes, second dose of ouabain (60 μg/kg) was administered over a period of one minute. One minute after this dose, 0.5 ml saline (in control experiments) was administered over a period of one minute. After an interval of 10 minutes a third dose of ouabain (90 μg/kg) was administered over a period of one minute. […] The test compounds were administered to animals in test group in place of saline to evaluate their antiarrhythmic potential. From the ECG recordings, the incidence of VT, VF and mortality were recorded. The doses of ratios of sotalol isomers studied were 0.1, 0.5 and 2.5 mg/kg.
# Interpretation of ECG recordings: Minor disturbance in rhythm was not considered while evaluating ventricular tachyarrhythmias. A run of more than 3 ventricular ectopic beats having wide QRS complexes associated with partial haemodynamic collapse was considered as Ventricular Tachycardia (VT). Total morphological irregularity of repetitive complexes for at least six cycles associated with complete haemodynamic collapse was considered as Ventricular Fibrillation (VF). Successful arrhythmia protection was defined as no occurrence of VT and VF from the injection of saline/test drug till the end of the experiment.
# Statistics: Chi square test with continuity correction at 95% confidence limit was applied to find out the statistical significance between control and test groups for incidence of VT, VF and mortality. Whenever, any of the value in a cell was less than 5, Fischer's exact probability test was used.
# Results: Different ratios of sotalol in the dose range from 0.02 mg/kg to 12.5 mg/kg were studied in individual groups of animals. In all 18 groups were studied and at least 6 animals were used in each group. In control animals ouabain 240 μg/kg in three divided doses induced reproducible ventricular tachyarrhythmias in guinea pigs. It was observed that ventricular arrhythmias appeared after the administration of the third dose. Guinea pigs which responded early i.e. before or within 1 min. of administration of the second dose, were considered early responders and were not included in the study. […] In the study, control experiments were carried out randomly interspersed in test groups. Among the 42 control animals the incidence of VT was 81%, incidence of VF was 71.4% and the incidence of mortality at 60 minutes was 61.9%.
# [3] = guinea pig, in vivo, listed as 4:1 ratio (d:l)
structure (smiles),measurement,setting,value
"CC(C)NCC(O)c1ccc(NS(C)(=O)=O)cc1 (stereo not drawn) [4:1 RATIO, N-[4-[1-hydroxy-2-[(1-methylethyl)amino]ethyl]phenyl] methane sulfonamide]",pA2 Mean,[1],6.01
same,actual incidence of mortality (value in parenthesis),[2]; 0.5 mg/kg,(2)
same,% INCIDENCE OF MORTALITY,[2]; 0.5 mg/kg,33.3%
same,"deaths due to conduction block (60 min), actual incidence (value in parenthesis)",[2]; 0.5 mg/kg,(1)
same,"deaths due to tachyarrhythmia (60 min), actual incidence (value in parenthesis)",[2]; 0.5 mg/kg,(1)
same,actual incidence of VF (value in parenthesis),[2]; 0.5 mg/kg,(6)
same,actual incidence of VT (value in parenthesis),[2]; 0.5 mg/kg,(6)
same,% INCIDENCE OF VF,[2]; 0.5 mg/kg,100.0%
same,% INCIDENCE OF VT,[2]; 0.5 mg/kg,100.0%
same,DEATHS DUE TO CONDUCTION BLOCK (60 MIN) Percentage,[2]; 0.5 mg/kg,50.0%
same,DEATHS DUE TO TACHYARRHYTHMIA (60 MIN) Percentage,[2]; 0.5 mg/kg,50.0%
same,protection against VF,[2]; 2.5 mg/kg,some protection
same,protection against ouabain induced VT,[2]; 2.5 mg/kg,some protection
same,actual incidence of mortality (value in parenthesis),[2]; 2.5 mg/kg,(2)
same,protection against arrhythmias (VT and VF),"[2]; 2.5 mg/kg, listed as 4:1",could not protect
same,% INCIDENCE OF MORTALITY,[2]; 2.5 mg/kg,33.3%
same,% INCIDENCE OF MORTALITY,"[2]; 2.5 mg/kg, listed as 4:1",33.3%
same,"deaths due to conduction block (60 min), actual incidence (value in parenthesis)",[2]; 2.5 mg/kg,(2)
same,"deaths due to tachyarrhythmia (60 min), actual incidence (value in parenthesis)",[2]; 2.5 mg/kg,(0)
same,actual incidence of VF (value in parenthesis),[2]; 2.5 mg/kg,(2)
same,actual incidence of VT (value in parenthesis),[2]; 2.5 mg/kg,(2)*
same,% INCIDENCE OF VF,[2]; 2.5 mg/kg,33.3%
same,% INCIDENCE OF VT,[2]; 2.5 mg/kg,33.3%
same,% INCIDENCE OF VF,"[2]; 2.5 mg/kg, listed as 4:1",33.3%
same,% INCIDENCE OF VT,"[2]; 2.5 mg/kg, listed as 4:1",33.3%
same,DEATHS DUE TO CONDUCTION BLOCK (60 MIN) Percentage,[2]; 2.5 mg/kg,100.0%
same,DEATHS DUE TO TACHYARRHYTHMIA (60 MIN) Percentage,[2]; 2.5 mg/kg,00.0%
same,protection against arrhythmias (VT and VF),[2]; 12.5 mg/Kg,could protect
same,actual incidence of mortality (value in parenthesis),[2]; 12.5 mg/kg,(4)
same,% INCIDENCE OF MORTALITY,[2]; 12.5 mg/kg,66.6%
same,% INCIDENCE OF MORTALITY,"[2]; 12.5 mg/kg, listed as 4:1 ratio",66.6%
same,"deaths due to conduction block (60 min), actual incidence (value in parenthesis)",[2]; 12.5 mg/kg,(3)
same,"deaths due to tachyarrhythmia (60 min), actual incidence (value in parenthesis)",[2]; 12.5 mg/kg,(1)
same,actual incidence of VF (value in parenthesis),[2]; 12.5 mg/kg,(0)*
same,actual incidence of VT (value in parenthesis),[2]; 12.5 mg/kg,(0)*
same,% INCIDENCE OF VF,[2]; 12.5 mg/kg,00.0%
same,% INCIDENCE OF VT,[2]; 12.5 mg/kg,00.0%
same,DEATHS DUE TO CONDUCTION BLOCK (60 MIN) Percentage,[2]; 12.5 mg/kg,75.0%
same,DEATHS DUE TO TACHYARRHYTHMIA (60 MIN) Percentage,[2]; 12.5 mg/kg,25.0%
same,mortality,[2]; effective dose of 12.5 mg/kg,significantly high
same,dose at which complete protection against VT was observed,[2]; [3],12.5 mg/kg
same,dose that completely protected against VF,[2]; [3],12.5 mg/kg
